Source: the SangsterLogP compilation

Test: method code SF-HPLC, from DOI: 10.1080/10826079308019563
Details: pH 11.0

| SMILES | logD |
| --- | --- |
| NC1=NCC(CN2CCN(c3cccc(C(F)(F)F)c3)CC2)O1 (stereo not given) | 2.21 |
| NC1=NCC(CN2CCN(c3ccccn3)CC2)O1 (stereo not given) | 0.48 |
| Cc1cccc(N2CCN(CC3CN=C(N)O3)CC2)c1C (stereo not given) | 2.19 |
| CCOc1ccccc1N1CCN(CC2CN=C(N)O2)CC1 (stereo not given) | 1.21 |
| COc1ccc(N2CCN(CC3CN=C(N)O3)CC2)cc1 (stereo not given) | 0.68 |
| NC1=NCC(CN2CCN(c3ncccn3)CC2)O1 (stereo not given) | 0.21 |
| NC1=NCC(CN2CCN(c3ccc(Cl)cc3)CC2)O1 (stereo not given) | 1.71 |
| COc1ccccc1N1CCN(CC2CN=C(N)O2)CC1 (stereo not given) | 0.76 |
| NC1=NCC(CN2CCN(c3ccccc3Cl)CC2)O1 (stereo not given) | 1.87 |
| NC1=NCC(CN2CCN(c3ccccc3)CC2)O1 (stereo not given) | 0.85 |
| NC1=NCC(CN2CCN(c3ccc(C(F)(F)F)cc3)CC2)O1 (stereo not given) | 1.23 |
| NC1=NCC(CN2CCN(c3ccc(Cl)c(Cl)c3)CC2)O1 (stereo not given) | 2.4 |
| NC1=NCC(CN2CCN(c3cccc(Cl)c3)CC2)O1 (stereo not given) | 1.83 |
| NC1=NCC(CN2CCN(c3ccc(F)cc3)CC2)O1 (stereo not given) | 1 |
| COc1cccc(N2CCN(CC3CN=C(N)O3)CC2)c1 (stereo not given) | 0.87 |
